Columns and labels:
PC-3 = assay: Sulforhodamine B proliferation; assay type: cell-based; conditions: Homo sapiens, PC-3, 72 h, 72 h, SRB, read-out: Inhibitory rate % (PC-3)
Protocol: (§1) At a certain density cells were seeded in 96-well plates, and adhered overnight. The medium was discarded after incubating cells with compounds to be tested for 72 h, then 100μL/well trichloroacetic acid (TCA) was added to fix cells at 4° C. for 2h. After that the fixing solution was discarded. Cells were gently washed 5 times with distilled water, dried at room temperature. Cells were stained with 4 mg/mL SRB staining solution (100 μL/well) at room temperature for 15min. The staining solution was discarded, and cells were washed five times with 1% acetic acid (HAC) and dried at room temperature. To the plate tris base buffer (10 mM) was added at 150 μL/well and placed at room temperature for 15min. The OD values were measured at 540 nm wavelength in a microplate reader. Inhibitory rate (%)=(OD valuecontrol wells−OD valuedrugs treated wells)/OD valuecontrol wells×100%.
(§2) The results were shown in Table 2, the working concentrations of MK2206 and compounds of FD series were 10 μM. As shown in this Table, PC-3 is a prostate cancer cell line purchased from Cell Resource Center of Shanghai Institutes for Biological Sciences, Chinese Academy of Sciences, A549 is a lung cancer cell line purchased from Cell Resource Center of Shanghai Institutes for Biological Sciences, Chinese Academy of Sciences, and SGC-7901 is a gastric cancer cell line purchased from Cell Resource Center of Shanghai Institutes for Biological Sciences, Chinese Academy of Sciences.

A549 = assay: Sulforhodamine B proliferation; assay type: cell-based; conditions: Homo sapiens, A549, 72 h, SRB, read-out: Inhibitory rate % (A549)
Protocol: as §1, §2

SGC-7901 = assay: Sulforhodamine B proliferation; assay type: cell-based; conditions: Homo sapiens, SGC-7901, 72 h, SRB, read-out: Inhibitory rate % (SGC-7901)
Protocol: as §1, §2

EphB4(h) = target: T1, EphB4(h) (Homo sapiens, UniProt P54760); assay: Tumor-associated kinase inhibition test; assay type: biochemical; conditions: read-out: Inhibitory rate (%)
T1 construct: purchased Eurofins Pharma Discovery Services UK Limited (contract testing)
T1 sequence (P54760 16-987): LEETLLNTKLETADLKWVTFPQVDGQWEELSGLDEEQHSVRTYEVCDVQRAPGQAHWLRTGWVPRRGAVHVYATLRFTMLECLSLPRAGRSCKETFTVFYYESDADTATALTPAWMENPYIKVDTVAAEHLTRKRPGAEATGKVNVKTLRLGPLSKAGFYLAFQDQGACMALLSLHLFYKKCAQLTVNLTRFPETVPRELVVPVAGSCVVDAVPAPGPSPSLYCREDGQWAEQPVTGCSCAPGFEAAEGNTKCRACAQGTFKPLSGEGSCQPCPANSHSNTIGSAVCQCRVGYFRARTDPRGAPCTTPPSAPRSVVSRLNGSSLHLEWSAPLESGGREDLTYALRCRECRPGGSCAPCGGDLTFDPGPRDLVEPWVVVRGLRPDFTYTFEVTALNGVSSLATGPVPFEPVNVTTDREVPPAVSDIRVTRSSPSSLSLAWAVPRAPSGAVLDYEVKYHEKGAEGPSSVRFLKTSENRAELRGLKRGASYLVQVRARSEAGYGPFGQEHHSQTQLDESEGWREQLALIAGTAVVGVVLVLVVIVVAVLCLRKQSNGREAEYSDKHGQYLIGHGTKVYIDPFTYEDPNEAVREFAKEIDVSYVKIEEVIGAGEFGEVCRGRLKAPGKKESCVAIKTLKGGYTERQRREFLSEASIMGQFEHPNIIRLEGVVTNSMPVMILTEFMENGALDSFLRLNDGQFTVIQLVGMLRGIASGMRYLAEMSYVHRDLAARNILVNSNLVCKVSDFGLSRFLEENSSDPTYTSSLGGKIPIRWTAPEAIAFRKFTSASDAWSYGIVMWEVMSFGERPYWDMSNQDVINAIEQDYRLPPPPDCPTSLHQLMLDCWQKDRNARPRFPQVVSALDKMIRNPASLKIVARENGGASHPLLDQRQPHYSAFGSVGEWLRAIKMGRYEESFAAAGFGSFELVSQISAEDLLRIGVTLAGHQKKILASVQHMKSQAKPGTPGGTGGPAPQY
From the text: (§3) Eurofins Pharma Discovery Services UK Limited completed and reported this experiment.

PKD2(h) = target: T2, PKD2(h) (Homo sapiens, UniProt Q9BZL6); assay: Tumor-associated kinase inhibition test; assay type: biochemical; conditions: read-out: Inhibitory rate (%)
T2 construct: purchased Eurofins Pharma Discovery Services UK Limited
T2 sequence (Q9BZL6 whole entry): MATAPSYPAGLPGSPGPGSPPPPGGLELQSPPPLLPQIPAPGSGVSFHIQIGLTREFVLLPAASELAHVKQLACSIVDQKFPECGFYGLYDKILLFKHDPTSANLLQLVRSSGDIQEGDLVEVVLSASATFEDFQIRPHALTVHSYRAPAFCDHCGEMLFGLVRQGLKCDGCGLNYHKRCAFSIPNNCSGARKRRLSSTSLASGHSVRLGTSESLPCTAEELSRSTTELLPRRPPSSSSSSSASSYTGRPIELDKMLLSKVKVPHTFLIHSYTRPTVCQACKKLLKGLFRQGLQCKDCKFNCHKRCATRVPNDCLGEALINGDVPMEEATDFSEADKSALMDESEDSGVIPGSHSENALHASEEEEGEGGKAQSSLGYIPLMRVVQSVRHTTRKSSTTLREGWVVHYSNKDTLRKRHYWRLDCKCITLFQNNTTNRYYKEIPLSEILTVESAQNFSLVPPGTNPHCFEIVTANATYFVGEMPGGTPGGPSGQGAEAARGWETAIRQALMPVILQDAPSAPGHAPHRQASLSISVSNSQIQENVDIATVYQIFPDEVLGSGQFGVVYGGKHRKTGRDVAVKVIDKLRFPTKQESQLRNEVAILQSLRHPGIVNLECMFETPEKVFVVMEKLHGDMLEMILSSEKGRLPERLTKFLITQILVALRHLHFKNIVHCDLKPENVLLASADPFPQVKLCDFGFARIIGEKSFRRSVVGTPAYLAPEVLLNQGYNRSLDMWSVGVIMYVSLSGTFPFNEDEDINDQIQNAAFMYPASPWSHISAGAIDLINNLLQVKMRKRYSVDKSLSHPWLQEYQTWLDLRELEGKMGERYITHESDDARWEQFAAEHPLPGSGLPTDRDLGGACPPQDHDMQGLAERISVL
From the text: as §3

PKCι(h) = target: T3, PKCι(h) (Homo sapiens, UniProt P41743); assay: Tumor-associated kinase inhibition test; assay type: biochemical; conditions: read-out: Inhibitory rate (%)
T3 construct: purchased Eurofins Pharma Discovery Services UK Limited
From the text: as §3

FGFR3(h) = target: T4, FGFR3(h) (Homo sapiens, UniProt P22607); assay: Tumor-associated kinase inhibition test; assay type: biochemical; conditions: read-out: Inhibitory rate (%)
T4 construct: purchased Eurofins Pharma Discovery Services UK Limited (contract testing)
From the text: as §3

PI3KC2α(h) = target: T5, PI3KC2α(h) (Homo sapiens, UniProt O00443); assay: Tumor-associated kinase inhibition test; assay type: biochemical; conditions: read-out: Inhibitory rate (%)
T5 construct: purchased Eurofins Pharma Discovery Services UK Limited (contract assay)
T5 sequence (O00443 whole entry): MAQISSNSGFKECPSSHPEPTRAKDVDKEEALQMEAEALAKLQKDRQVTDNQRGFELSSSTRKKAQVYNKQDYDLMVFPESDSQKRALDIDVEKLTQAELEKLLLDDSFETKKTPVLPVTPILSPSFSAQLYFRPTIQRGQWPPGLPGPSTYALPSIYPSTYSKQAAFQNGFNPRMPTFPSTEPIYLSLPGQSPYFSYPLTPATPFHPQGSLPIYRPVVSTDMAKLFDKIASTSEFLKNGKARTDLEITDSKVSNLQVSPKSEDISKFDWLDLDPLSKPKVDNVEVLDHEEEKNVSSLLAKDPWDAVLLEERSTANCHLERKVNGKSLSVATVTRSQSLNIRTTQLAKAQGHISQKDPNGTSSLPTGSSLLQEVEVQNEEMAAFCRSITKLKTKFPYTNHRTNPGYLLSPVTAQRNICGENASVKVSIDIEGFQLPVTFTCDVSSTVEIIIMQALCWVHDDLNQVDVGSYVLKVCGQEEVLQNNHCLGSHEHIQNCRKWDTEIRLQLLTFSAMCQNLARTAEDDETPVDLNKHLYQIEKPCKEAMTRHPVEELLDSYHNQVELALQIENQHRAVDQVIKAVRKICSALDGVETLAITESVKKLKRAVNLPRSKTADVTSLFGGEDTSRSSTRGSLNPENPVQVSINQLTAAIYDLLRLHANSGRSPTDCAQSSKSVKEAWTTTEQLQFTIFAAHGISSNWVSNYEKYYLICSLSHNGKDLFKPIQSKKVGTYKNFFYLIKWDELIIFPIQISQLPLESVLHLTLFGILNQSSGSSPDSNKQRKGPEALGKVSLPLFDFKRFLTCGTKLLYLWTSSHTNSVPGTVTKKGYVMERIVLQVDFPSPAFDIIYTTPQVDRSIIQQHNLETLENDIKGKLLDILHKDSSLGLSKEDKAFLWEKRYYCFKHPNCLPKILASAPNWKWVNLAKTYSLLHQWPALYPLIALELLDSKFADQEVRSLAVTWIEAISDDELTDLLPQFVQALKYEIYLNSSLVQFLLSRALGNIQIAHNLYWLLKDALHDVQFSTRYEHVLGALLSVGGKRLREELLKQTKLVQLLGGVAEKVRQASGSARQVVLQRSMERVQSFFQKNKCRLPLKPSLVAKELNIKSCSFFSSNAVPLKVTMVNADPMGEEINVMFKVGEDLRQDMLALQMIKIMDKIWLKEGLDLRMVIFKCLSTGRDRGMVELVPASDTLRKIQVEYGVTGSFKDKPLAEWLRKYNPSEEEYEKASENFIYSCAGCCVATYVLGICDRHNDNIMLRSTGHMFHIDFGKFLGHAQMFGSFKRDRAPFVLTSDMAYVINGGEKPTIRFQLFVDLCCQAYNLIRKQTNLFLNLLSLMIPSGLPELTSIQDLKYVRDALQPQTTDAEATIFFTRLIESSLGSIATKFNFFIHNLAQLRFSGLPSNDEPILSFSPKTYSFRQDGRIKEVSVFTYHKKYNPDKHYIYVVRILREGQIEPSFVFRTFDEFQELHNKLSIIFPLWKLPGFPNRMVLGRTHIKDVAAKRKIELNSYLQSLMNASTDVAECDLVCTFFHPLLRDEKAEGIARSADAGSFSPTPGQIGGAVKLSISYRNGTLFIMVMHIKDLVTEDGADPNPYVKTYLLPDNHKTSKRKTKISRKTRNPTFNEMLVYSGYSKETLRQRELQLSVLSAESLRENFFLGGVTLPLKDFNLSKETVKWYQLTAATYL
From the text: as §3

LKB1(h) = target: T6, LKB1(h) (Homo sapiens, UniProt Q15831); assay: Tumor-associated kinase inhibition test; assay type: biochemical; conditions: read-out: Inhibitory rate (%)
T6 construct: purchased Eurofins Pharma Discovery Services UK Limited
T6 sequence (Q15831 whole entry): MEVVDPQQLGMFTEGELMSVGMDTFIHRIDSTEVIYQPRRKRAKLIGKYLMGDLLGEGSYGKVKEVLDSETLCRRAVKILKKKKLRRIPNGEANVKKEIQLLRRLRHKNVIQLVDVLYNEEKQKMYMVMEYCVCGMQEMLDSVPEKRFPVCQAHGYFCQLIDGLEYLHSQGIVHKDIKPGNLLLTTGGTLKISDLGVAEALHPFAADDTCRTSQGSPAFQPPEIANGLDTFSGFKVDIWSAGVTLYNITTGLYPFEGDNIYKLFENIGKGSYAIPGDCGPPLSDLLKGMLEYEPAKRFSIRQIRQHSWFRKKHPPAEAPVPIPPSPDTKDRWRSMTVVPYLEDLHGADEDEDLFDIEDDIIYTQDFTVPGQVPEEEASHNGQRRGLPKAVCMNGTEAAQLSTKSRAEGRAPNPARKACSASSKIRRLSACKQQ
T6 sequence (Q7RTN6 whole entry partner): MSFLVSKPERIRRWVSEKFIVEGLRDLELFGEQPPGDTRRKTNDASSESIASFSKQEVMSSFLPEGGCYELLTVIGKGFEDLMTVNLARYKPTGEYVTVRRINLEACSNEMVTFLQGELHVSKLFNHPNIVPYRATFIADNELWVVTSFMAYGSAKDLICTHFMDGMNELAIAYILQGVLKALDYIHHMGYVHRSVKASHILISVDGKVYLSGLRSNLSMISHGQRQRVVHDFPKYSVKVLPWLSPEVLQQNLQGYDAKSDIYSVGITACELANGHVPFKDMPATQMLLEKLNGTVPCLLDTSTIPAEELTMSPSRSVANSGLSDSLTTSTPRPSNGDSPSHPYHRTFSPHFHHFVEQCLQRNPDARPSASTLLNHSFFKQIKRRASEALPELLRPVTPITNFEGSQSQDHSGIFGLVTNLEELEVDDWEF
T6 sequence (Q9Y376 whole entry partner): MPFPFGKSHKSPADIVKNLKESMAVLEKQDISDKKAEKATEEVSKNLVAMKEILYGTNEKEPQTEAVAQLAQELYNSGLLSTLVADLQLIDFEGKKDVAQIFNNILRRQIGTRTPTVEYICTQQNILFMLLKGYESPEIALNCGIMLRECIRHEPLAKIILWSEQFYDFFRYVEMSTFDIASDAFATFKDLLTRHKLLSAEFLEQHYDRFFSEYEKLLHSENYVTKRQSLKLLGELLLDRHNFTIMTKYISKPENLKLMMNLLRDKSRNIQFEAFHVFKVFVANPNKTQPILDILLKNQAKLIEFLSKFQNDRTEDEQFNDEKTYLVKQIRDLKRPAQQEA
From the text: as §3

**Q.** With `C=C(C)n1c(=O)n(C(C)=O)c2ncc(Br)cc21` [FD162] as the compound, how does the inhibition at 10 µM (PC-3) read?
**A.** Its inhibition at 10 µM is 62.4%.

**Q.** And the inhibition at 10 µM (A549)?
**A.** The inhibition at 10 µM was 12.1%.

**Q.** What about the inhibition at 10 µM (SGC-7901) of the same compound?
**A.** The inhibition at 10 µM was 70.2%.

**Q.** And the inhibition at 10 µM (EphB4(h))?
**A.** Its inhibition at 10 µM is -8%.

**Q.** What about the inhibition at 10 µM (PKD2(h)) of the same compound?
**A.** Its inhibition at 10 µM is 11%.

**Q.** What about the inhibition at 10 µM (PKCι(h)) of the same compound?
**A.** The inhibition at 10 µM was 11%.

**Q.** What about the inhibition at 10 µM (FGFR3(h)) of the same compound?
**A.** The inhibition at 10 µM was 7%.

**Q.** What about the inhibition at 10 µM (PI3KC2α(h)) of the same compound?
**A.** Its inhibition at 10 µM is 7%.

**Q.** And the inhibition at 10 µM (LKB1(h))?
**A.** The inhibition at 10 µM was 8%.
